Data reported in PMC12603070, “A high-throughput screening approach to discover potential colorectal cancer chemotherapeutics: repurposing drugs to identify novel disruptors of 14-3-3 proteins” (Cell Death & Disease, 2025).
Counter-ions that a name gives are not always drawn. Like-named read-outs stand apart in the source and are kept apart here. Numbered stars: 1 amine (or outer) side, 2 acyl side, 3 side chain; on linkers, the order of the positions; unused ones are H or OH. Bridge positions count the residues as written; N and C are the ends. Square brackets hold non-standard residues; d marks the D form. Peptide text beside a SMILES is read from it. * marks the point of attachment. pTerphenylCO(4''-OnC5H11) = CCCCCOc1ccc(-c2ccc(-c3ccc(C(=O)*)cc3)cc2)cc1; Orn(4R-OH,5R-OH) = O=C([C@H](C[C@@H](O)[C@@H](O)N[*:3])N[*:1])[*:2]; hTyr(3S-OH,4S-OH) = N[C@H](C(=O)O)[C@H](O)[C@@H](O)c1ccc(O)cc1; Pro(3S-OH,4S-Me) = C[C@H]1CN[C@H](C(=O)O)[C@H]1O; Hyp = O=C(O)[C@@H]1C[C@@H](O)CN1

Key:
[1] = target: T1, 14-3-3ζ:BAD-112-136F interactions (Homo sapiens, UniProt P63104); assay: BRET sensor screen for disruption of 14-3-3ζ-Rluc8:BAD-112-136F-mCitrine in living NIH-3T3 cells; type: cell-based, murine; parameters: inhibition: dose or concentration left out as unconfirmed; BRET reduction on NIH-3T3: unit not given here; conditions: for inhibition / inhibition at 20 µM: NIH3T3, 3 h, read-out: BRET reduction on NIH-3T3
T1 construct: expressed in transfected cells; host or cells: NIH-3T3 fibroblasts, bi-directional pBI-CMV1 plasmid
T1 sequence (P63104 1-245): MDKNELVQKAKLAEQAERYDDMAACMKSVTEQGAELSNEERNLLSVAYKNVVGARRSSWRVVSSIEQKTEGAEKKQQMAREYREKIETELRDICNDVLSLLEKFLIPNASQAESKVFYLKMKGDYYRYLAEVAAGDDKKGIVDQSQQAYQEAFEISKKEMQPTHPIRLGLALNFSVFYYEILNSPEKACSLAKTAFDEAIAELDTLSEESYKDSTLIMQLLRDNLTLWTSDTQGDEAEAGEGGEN
Procedure: The Z’-score, which evaluates the robustness of an HTS assay readout, was calculated according to standard protocols. For the HTS, 384-well plates were coated with 100 μg/mL poly-L-ornithine (Sigma, Missouri, United States; #P3655) overnight at 37 °C, followed by rinsing with sterilized water. NIH-3T3 cells were transfected with the BRET sensor two days prior to experimentation, followed by replating onto the pre-coated 384-well plates at a density of 20,000 cells/well. After 24 h of incubation at 37 °C, growth media was replaced by Krebs buffer (pH 7.4).

Caco-2 cells = type: cell-based; conditions: for Percentage of cell death % 24h CACO-2: 20 µM; for Percentage of cell death % 48h, Caco-2: 20 μM
Description: (§1) A high-content imaging system (PerkinElmer; Operetta CLS), was used to quantify cell death and apoptosis by calculating the number of propidium iodide-positive cells relative to Hoechst-positive cells, and the number of Annexin V-positive cells relative to Hoechst-positive cells, respectively.

NIH-3T3 cells = assay: Hoechst/propidium iodide cell death assay in NIH-3T3; type: cell-based; conditions: for cytotoxicity at 20 µM: Mus musculus, NIH3T3, 24 h, read-out: Percentage of cell death % 24h NIH3t3
Description: as §1

HT-29 cells = assay: Hoechst/propidium iodide cell death assay in HT-29; type: cell-based, human; conditions: for cytotoxicity at 20 µM: Homo sapiens; for %Cell death HT-29: time not given
Description: as §1

[2] = NIH-3T3 cells, hits from the primary screen
[3] = NIH-3T3 expressing BRET sensor, 20 µM, 3 h
[4] = HT-29, 24 h, 20 µM, 24 h, read-out: Percentage of cell death % 24h HT-29
[5] = HT-29, 48 h, HT-29, 48h, 20 μM, read-out: Percentage of cell death % 48h, HT-29
[6] = HT-29, 24 h, read-out: Percentage of cell death % 24h HT-29
[7] = HT-29, 48 h, read-out: Percentage of cell death % 48h, HT-29

inhibition [1, 2] | inhibition at 20 µM [1, 3] | BRET reduction on NIH-3T3 [1, 3] | Compound | Percentage of cell death % 24h CACO-2 (Caco-2 cells) | Percentage of cell death % 48h, Caco-2 (Caco-2 cells) | cytotoxicity at 20 µM (NIH-3T3 cells; 20 µM, 24 h) | Percentage of cell death % 48h, NIH3T3 (NIH-3T3 cells) | cytotoxicity at 20 µM (HT-29 cells; [4]) | cytotoxicity at 20 µM (HT-29 cells; [5]) | inhibition at 20 µM [1] | BRET reduction on NIH-3T3 [1, 2] | cytotoxicity at 20 µM (NIH-3T3 cells) | cytotoxicity at 20 µM (HT-29 cells; [6]) | cytotoxicity at 20 µM (HT-29 cells; [7]) | %Cell death Caco-2 (Caco-2 cells; time not given, text says 48 h) | %Cell death HT-29 (HT-29 cells; HT-29) | %Cell death Caco-2 (Caco-2 cells) | Percentage of cell death % 24h NIH3t3 (NIH-3T3 cells; 20 µM, 24 h) | Percentage of cell death % 24h HT-29 (HT-29 cells; 20 µM, 24 h) | Percentage of cell death % 48h, HT-29 (HT-29 cells; HT-29, 48h, 20 μM)
28.7% | 28.7% | – | CCc1cc(/C(C)=N/OCc2ccc(C3CCCCC3)c(C(F)(F)F)c2)ccc1CN1CC(C(=O)O)C1 [BAF312 (Siponimod), Siponimod] | 2.6196% | 2.567% | 0.738% | 0.7911% | 0.683% | 1.58% | – | – | – | – | – | – | – | – | – | – | –
– | – | 50.3473 | C[C@@H](NCCCc1cccc(C(F)(F)F)c1)c1cccc2ccccc12 [Cinacalcet HCl] | 64.4357% | 76.6269% | – | 69.2945% | – | – | – | 50.3473 | – | – | – | – | – | – | 81.0537% | 35.6614% | 79.6038%
47.7% | 47.7% | – | C[C@@H](NCCCc1cccc(C(F)(F)F)c1)c1cccc2ccccc12 [Cinacalcet] | 40.5775% | 49.3803% | 75.5% | 90.5083% | 30% | 70.3% | – | – | – | – | – | 49.4% | 70.3% | – | – | – | –
38.2% | 38.2% | – | CCN(CC)CCOc1ccc(C(=C(Cl)c2ccccc2)c2ccccc2)cc1 [Clomiphene citrate] | – | – | 10.1% | 58.221% | 1.46% | 52% | – | – | – | – | – | – | 52.0% | 34.7% | – | – | –
49% | 49% | – | CCCCCCCCCCCC[N+](C)(C)CCOc1ccccc1 [Domiphen Bromide] | 24.2566% | 80.35% | 81.2% | 69.1517% | 15% | 57.1% | – | – | – | – | – | – | – | – | – | – | –
– | – | 49.6356 | CCCCc1oc2ccc(NS(C)(=O)=O)cc2c1C(=O)c1ccc(OCCCN(CCCC)CCCC)cc1 [Dronedarone HCl] | 77.641% | 87.4152% | – | 84.99% | – | – | – | 49.6356 | – | – | – | – | – | – | 85.6589% | 82.9811% | 91.5188%
50.4% | 50.4% | – | CCCCc1oc2ccc(NS(C)(=O)=O)cc2c1C(=O)c1ccc(OCCCN(CCCC)CCCC)cc1 [Dronedarone] | 69.9639% | 86.906% | 88.3% | 83.8385% | – | 79% | – | – | – | – | – | 86.9% | 79.0% | – | – | 52.4326% | –
30.3% | 30.3% | – | O=C1Nc2ccc(Cl)cc2[C@@](C#CC2CC2)(C(F)(F)F)O1 [Efavirenz] | – | – | 41.4% | 7.6471% | 18.5% | 22% | – | – | – | – | – | – | 22.0% | 20.5% | – | – | –
– | – | 53.9832 | Sodium Aescinate | – | – | – | 15.6079% | – | – | – | 53.9832 | – | – | – | – | – | – | 50.0783% | 0.8457% | 0.6065%
– | – | 36.7374 | Vitamin B12 | – | – | – | 0.1179% | – | – | – | 36.7374 | – | – | – | – | – | – | 0.2976% | 0.4615% | 1.059%

More lines, now with the values behind:

Compound | inhibition [1, 2] | inhibition at 20 µM [1, 3] | BRET reduction on NIH-3T3 [1, 3] | Percentage of cell death % 24h CACO-2 (Caco-2 cells) | Percentage of cell death % 48h, Caco-2 (Caco-2 cells) | cytotoxicity at 20 µM (NIH-3T3 cells; 20 µM, 24 h) | Percentage of cell death % 48h, NIH3T3 (NIH-3T3 cells) | cytotoxicity at 20 µM (HT-29 cells; [4]) | cytotoxicity at 20 µM (HT-29 cells; [5]) | inhibition at 20 µM [1] | BRET reduction on NIH-3T3 [1, 2] | cytotoxicity at 20 µM (NIH-3T3 cells) | cytotoxicity at 20 µM (HT-29 cells; [6]) | cytotoxicity at 20 µM (HT-29 cells; [7]) | %Cell death Caco-2 (Caco-2 cells; time not given, text says 48 h) | %Cell death HT-29 (HT-29 cells; HT-29) | %Cell death Caco-2 (Caco-2 cells) | Percentage of cell death % 24h NIH3t3 (NIH-3T3 cells; 20 µM, 24 h) | Percentage of cell death % 24h HT-29 (HT-29 cells; 20 µM, 24 h) | Percentage of cell death % 48h, HT-29 (HT-29 cells; HT-29, 48h, 20 μM)
Cn1ncc(Cl)c1-c1cc(C(=O)N[C@H](CN)Cc2cccc(F)c2)sc1Cl [Afuresertib] | 27.8% | 27.8% | – | 23.3726% | 43.2801% | 57.7% | 38.6266% | 3.99% | 37.5% | – | – | – | – | – | – | – | – | – | – | –
CCCCCOc1ccc(-c2ccc(-c3ccc(C(=O)N[C@H]4C[C@@H](O)[C@@H](O)NC(=O)[C@@H]5[C@@H](O)[C@@H](C)CN5C(=O)[C@H]([C@@H](C)O)NC(=O)[C@H]([C@H](O)[C@@H](O)c5ccc(O)cc5)NC(=O)[C@@H]5C[C@@H](O)CN5C(=O)[C@H]([C@@H](C)O)NC4=O)cc3)cc2)cc1 [Anidulafungin] ({pTerphenylCO(4''-OnC5H11)}-[Orn(4R-OH,5R-OH)]T[Hyp][hTyr(3S-OH,4S-OH)]T[Pro(3S-OH,4S-Me)]; lactam 1-C) | – | – | – | 1.705% | 1.424% | – | 12.0742% | – | – | 27% | 27.0241 | 33.6% | 4.73% | 7.05% | – | – | – | – | – | –
CC1=C(C(=O)OC(C)C)C(c2cccc([N+](=O)[O-])c2)C(C(=O)OC2CN(C(c3ccccc3)c3ccccc3)C2)=C(N)N1 (stereo not shown) [Azelnidipine] | 40.2% | 40.2% | – | 9.563% | 13.6799% | 75.6% | 71.6636% | 66.4% | 91.6% | – | – | – | – | – | 13.7% | 91.6% | – | – | – | –
COC(=O)[C@]12CCC(C)(C)C[C@H]1[C@H]1C(=O)C=C3[C@@]4(C)C=C(C#N)C(=O)C(C)(C)[C@@H]4CC[C@@]3(C)[C@]1(C)CC2 [Bardoxolone methyl] | – | – | 39.4225 | – | – | – | 72.1638% | – | – | – | 39.4225 | – | – | – | – | 67.5% | 19.2% | 87.0027% | 43.1592% | 67.5309%
CCCCCCCCCCCCCCCC[N+](C)(C)C [Cetrimonium Bromide (CTAB), Cetrimonium Bromide] | – | – | – | 19.5542% | 50.4821% | – | 66.4515% | – | – | 35.4% | 35.3912 | 73.5% | 11.5% | 55.4% | – | – | – | – | – | –
CCCCCCCCCCCCCCCC[n+]1ccccc1 [Cetylpyridinium Chloride] | – | – | – | 22.2457% | 63.7687% | – | 74.7179% | – | – | – | – | 81.9% | 27.2% | 76.9% | – | – | – | – | – | –
CO[C@H]1C[C@H](O[C@H]2[C@H](C)O[C@@H](O[C@@H]3/C(C)=C/C[C@@H]4C[C@@H](C[C@]5(C=C[C@H](C)[C@@H](C6CCCCC6)O5)O4)OC(=O)[C@@H]4C=C(C)[C@@H](O)[C@H]5OC/C(=C\C=C\[C@@H]3C)[C@]54O)C[C@@H]2OC)O[C@@H](C)[C@@H]1O [Doramectin] | – | – | 36.2699 | – | – | – | 58.749% | – | – | – | 36.2699 | – | – | – | – | 51.6% | 32.3% | 51.7189% | 11.0069% | 51.5756%
Clc1ccc(CO/N=C(\Cn2ccnc2)c2ccc(Cl)cc2Cl)c(Cl)c1.O=[N+]([O-])O [Oxiconazole (nitrate)] | – | – | – | 8.851% | 7.056% | – | 4.864% | – | – | – | – | – | – | – | – | – | – | 5.3556% | 3.543% | 5.935%
